Tested on: ddY mice
Assay: Oxylipin analysis of plasma and brain regions of juvenile offspring after maternal glyphosate exposure
Type: in vivo, mouse
Details: juvenile offspring (P28), maternal 0.095% glyphosate
Description: Collection of blood and brain samples and oxylipin analysis. Water or 0.095% glyphosate was given to pregnant mice from E5 to P21, as described above. The male offspring were separated from their mothers at weaning (P21). At juvenile (P28) stage, mice were deeply anesthetized with isoflurane and plasma was collected. Subsequently, brains were removed from the skulls. For Western blot analysis, brain regions such as prefrontal cortex (PFC), hippocampus, and striatum, were dissected from brain on ice. The samples were stored at −80° C. before assay. For oxylipin analysis, plasma was collected after isoflurane anesthesia at juvenile (P28) stage. Subsequently, PFC, hippocampus, and striatum were dissected from brain on ice, and the samples were stored at −80° C. before assay. Measurement of eicosanoids in the plasma and brain regions was performed at UC Davis using the previous method (4).

O=C(O)CNCP(=O)(O)O [glyphosate]
4,5-DiHDPE level (plasma): 1.527 ± 0.112 nmol/mL | 5(6)-EpETrE level (plasma): 24.279 ± 3.524 nmol/mL | 5,6-DiHETrE level (plasma): 0.417 ± 0.047 nmol/mL | 5-HEPE level (plasma): 8.117 ± 1.251 nmol/mL | 5-HETE level (plasma): 2.137 ± 0.335 nmol/mL | 5-oxo-ETE level (plasma): 20.987 ± 2.839 nmol/mL | 6-keto-PGF1a level (plasma): 0.252 ± 0.043 nmol/mL | 7(8)-EpDPE level (plasma): 195.343 ± 16.718 nmol/mL | 8(9)-EpETE level (plasma): 0.863 ± 0.138 nmol/mL | 8(9)-EpETrE alt level (plasma): 3.325 ± 0.409 nmol/mL | 8(9)-EpETrE level (plasma): 13.892 ± 2.938 nmol/mL | 8-HEPE level (plasma): 7.652 ± 0.970 nmol/mL | 8-HETE level (plasma): 7.349 ± 0.718 nmol/mL | 9(10)-EpOME level (plasma): 28.326 ± 4.243 nmol/mL | 9,10,13-TriHOME level (plasma): 5.220 ± 0.403 nmol/mL | 9,12,13-TriHOME level (plasma): 12.758 ± 1.096 nmol/mL | 9-HETE level (plasma): 0.056 ± 0.012 nmol/mL | 9-HODE level (plasma): 17.293 ± 2.482 nmol/mL | 10(11)-EpDPE level (plasma): 13.285 ± 1.234 nmol/mL | 11(12)-EpETE level (plasma): 2.579 ± 0.284 nmol/mL | 11(12)-EpETrE level (plasma): 6.360 ± 1.002 nmol/mL | 11,12-,15-TriHETrE level (plasma): 0.300 ± 0.072 nmol/mL | 11,12-DiHETrE level (plasma): 0.394 ± 0.045 nmol/mL | 11-HETE level (plasma): 1.949 ± 0.131 nmol/mL | 12(13)-EpOME level (plasma): 38.512 ± 4.378 nmol/mL | 12-HEPE level (plasma): 92.380 ± 15.026 nmol/mL | 12-HETE level (plasma): 90.069 ± 11.494 nmol/mL | 12-oxo-ETE level (plasma): 500.173 ± 99.031 nmol/mL | 13(14)-EpDPE level (plasma): 8.177 ± 0.873 nmol/mL | 13,14-DiHDPE level (plasma): 0.530 ± 0.056 nmol/mL | 13-HODE level (plasma): 66.733 ± 9.200 nmol/mL | 14(15)-EpETE level (plasma): 2.316 ± 0.258 nmol/mL | 14(15)-EpETrE level (plasma): 4.038 ± 0.637 nmol/mL | 14,15-DiHETrE level (plasma): 0.575 ± 0.051 nmol/mL | 15(16)-EpODE level (plasma): 14.493 ± 1.929 nmol/mL | 15(S)-HETrE level (plasma): 0.743 ± 0.167 nmol/mL | 15-HETE level (plasma): 1.985 ± 0.228 nmol/mL | 15-oxo-ETE level (plasma): 0.746 ± 0.105 nmol/mL | 16(17)-EpDPE level (plasma): 7.978 ± 0.799 nmol/mL | 16,17-DiHDPE level (plasma): 1.955 ± 0.201 nmol/mL | 17(18)-EpETE level (plasma): 4.845 ± 0.480 nmol/mL | 17-HDoHE level (plasma): 1386.287 ± 316.090 nmol/mL | 19(20)-EpDPE level (plasma): 19.092 ± 1.307 nmol/mL | 19,20-DiHDPE level (plasma): 6.507 ± 0.444 nmol/mL | EKODE level (plasma): 12.405 ± 2.140 nmol/mL | LTB3 level (plasma): 2.540 ± 0.525 nmol/mL | PGD2 level (plasma): 0.138 ± 0.010 nmol/mL | PGE2 level (plasma): 0.704 ± 0.010 nmol/mL | PGF2a level (plasma): 0.462 ± 0.048 nmol/mL | TXB2 level (plasma): 0.548 ± 0.069 nmol/mL | 4,5-DiHDPE level (striatum): 1.331 ± 0.320 pmol/g | 5(6)-EpETrE level (striatum): 2286.424 ± 589.971 pmol/g | 5,6-DiHETrE level (striatum): 0.655 ± 0.058 pmol/g | 5-HEPE level (striatum): 1.966 ± 0.253 pmol/g | 5-HETE level (striatum): 21.009 ± 1.874 pmol/g | 5-oxo-ETE level (striatum): 177.806 ± 23.342 pmol/g | 6-keto-PGF1a level (striatum): 70.151 ± 4.942 pmol/g | 7(8)-EpDPE level (striatum): 3684.482 ± 1464.079 pmol/g | 8(9)-EpETE level (striatum): 2.863 ± 1.693 pmol/g | 8(9)-EpETrE alt level (striatum): 256.271 ± 63.811 pmol/g | 8(9)-EpETrE level (striatum): 7513.6 ± 2879.9 pmol/g | 8-HEPE level (striatum): 1.198 ± 0.106 pmol/g | 8-HETE level (striatum): 7.063 ± 1.134 pmol/g | 9(10)-EpOME level (striatum): 64.909 ± 24.089 pmol/g | 9,10,13-TriHOME level (striatum): 35.219 ± 5.532 pmol/g | 9,12,13-TriHOME level (striatum): 59.110 ± 9.487 pmol/g | 9-HETE level (striatum): 2.001 ± 0.403 pmol/g | 9-HODE level (striatum): 42.211 ± 2.648 pmol/g | 10(11)-EpDPE level (striatum): 283.118 ± 111.688 pmol/g | 11(12)-EpETE level (striatum): 2.950 ± 0.707 pmol/g | 11(12)-EpETrE level (striatum): 1056.655 ± 383.807 pmol/g | 11,12-,15-TriHETrE level (striatum): 28.513 ± 2.432 pmol/g | 11,12-DiHETrE level (striatum): 1.461 ± 0.114 pmol/g | 11-HETE level (striatum): 263.508 ± 14.043 pmol/g | 12(13)-EpOME level (striatum): 75.548 ± 26.478 pmol/g | 12-HEPE level (striatum): 16.777 ± 3.707 pmol/g | 12-HETE level (striatum): 402.213 ± 68.023 pmol/g | 12-oxo-ETE level (striatum): 2383.322 ± 205.470 pmol/g | 13(14)-EpDPE level (striatum): 196.586 ± 72.402 pmol/g | 13,14-DiHDPE level (striatum): 0.849 ± 0.088 pmol/g | 13-HODE level (striatum): 61.551 ± 3.988 pmol/g | 14(15)-EpETE level (striatum): 2.368 ± 0.640 pmol/g | 14(15)-EpETrE level (striatum): 991.031 ± 327.438 pmol/g | 14,15-DiHETrE level (striatum): 2.399 ± 0.255 pmol/g | 15(16)-EpODE level (striatum): 0.837 ± 0.335 pmol/g | 15(S)-HETrE level (striatum): 13.863 ± 0.898 pmol/g | 15-HETE level (striatum): 312.592 ± 16.237 pmol/g | 15-oxo-ETE level (striatum): 15.203 ± 3.961 pmol/g | 16(17)-EpDPE level (striatum): 186.178 ± 73.985 pmol/g | 16,17-DiHDPE level (striatum): 1.427 ± 0.114 pmol/g | 17(18)-EpETE level (striatum): 7.282 ± 2.840 pmol/g | 17-HDoHE level (striatum): 7832.089 ± 1004.299 pmol/g | 19(20)-EpDPE level (striatum): 373.365 ± 128.458 pmol/g | 19,20-DiHDPE level (striatum): 8.734 ± 0.672 pmol/g | EKODE level (striatum): 14.223 ± 1.256 pmol/g | LTB3 level (striatum): 74.130 ± 28.033 pmol/g | PGD2 level (striatum): 404.389 ± 30.557 pmol/g | PGE2 level (striatum): 61.254 ± 3.057 pmol/g | PGF2a level (striatum): 367.138 ± 24.248 pmol/g | TXB2 level (striatum): 219.314 ± 15.121 pmol/g

Source: patent publication US12357598B2, “Treatment of neurodevelopmental disorders” (THE REGENTS OF THE UNIVERSITY OF CALIFORNIA, priority 2018, dated 2025)
